Patent US20160159814A1, “GLYCINE TRANSPORTER INHIBITOR” (TAISHO PHARMACEUTICAL CO., LTD., priority 2013, published 2016)

Biological target: T1, human type 1 glycine transporter (GlyT1) (Homo sapiens, UniProt P48067)
T1 construct: T98G cells (glioma cells) expressing human type 1 glycine transporter (GlyT1) were used; endogenous in cells; host or cells: T98G cells (human glioma cells)
T1 sequence (P48067 1-706): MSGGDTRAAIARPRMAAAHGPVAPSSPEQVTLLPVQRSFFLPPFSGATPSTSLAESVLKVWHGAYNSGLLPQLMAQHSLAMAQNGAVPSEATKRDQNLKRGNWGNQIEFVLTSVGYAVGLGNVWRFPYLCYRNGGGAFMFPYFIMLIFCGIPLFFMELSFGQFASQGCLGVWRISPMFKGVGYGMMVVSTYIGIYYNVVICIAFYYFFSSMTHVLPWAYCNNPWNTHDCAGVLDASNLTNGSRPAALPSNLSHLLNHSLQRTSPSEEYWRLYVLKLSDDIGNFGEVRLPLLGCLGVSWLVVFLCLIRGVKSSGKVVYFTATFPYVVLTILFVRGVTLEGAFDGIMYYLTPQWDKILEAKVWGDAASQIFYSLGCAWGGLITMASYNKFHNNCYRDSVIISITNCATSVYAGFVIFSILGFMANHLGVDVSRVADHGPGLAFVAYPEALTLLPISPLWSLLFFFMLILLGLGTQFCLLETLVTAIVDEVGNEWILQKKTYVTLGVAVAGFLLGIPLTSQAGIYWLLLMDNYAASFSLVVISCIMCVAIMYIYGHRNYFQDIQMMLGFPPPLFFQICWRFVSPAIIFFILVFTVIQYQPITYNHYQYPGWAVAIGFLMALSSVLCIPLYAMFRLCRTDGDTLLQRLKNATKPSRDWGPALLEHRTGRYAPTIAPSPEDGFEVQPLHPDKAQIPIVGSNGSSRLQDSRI
Experiment: Glycine uptake inhibition experiment ([3H] glycine uptake in T98G cells expressing GlyT1)
Type: cell-based
Details: not given
Procedure: Glycine Uptake Inhibition Experiment
A glycine uptake experiment was conducted in accordance with the method published in Neuron, 8, 927-935, 1992. In the experiment, T98G cells (glioma cells) expressing human type 1 glycine transporter (GlyT1) were used. The T98G cells were seeded in a 96-well plate at 2.0×10^4 cells/well and cultured overnight in a CO2 incubator. The test substance was dissolved in a 100% DMSO solution and then dissolved in a 10 mM HEPES buffer solution (pH 7.4) containing 150 mM sodium chloride, 1 mM calcium chloride, 5 mM potassium chloride, 1 mM magnesium chloride, 10 mM glucose and 0.2% bovine serum albumin. After removing the cell culture medium, the test substance was subjected to a 10-min pretreatment. Subsequently, the test substance and [^3H] glycine (final concentration: 250 nM) were added to the cells and reaction was performed at room temperature for 15 minutes. After the end of the reaction, the extracellular fluid was aspirated with a manifold to remove excess labeled glycine present outside the cells, and then the cells were lysed with a 0.5 M aqueous sodium hydroxide solution. The glycine content in the cells was determined by measuring the radioactivity in the cell lysate with a liquid scintillation counter. Glycine uptake in the presence of 10 μM ALX5407 was defined as non-specific uptake, and the value calculated by subtracting the amount of the non-specific uptake from the total uptake in the absence of 10 μM ALX5407 was defined as specific uptake. In addition, glycine uptake inhibitory activity (IC50 value) was calculated from an inhibition curve at the concentrations of each test substance ranging from 10^−9 to 10^−5 M. It should be noted that ALX5407 is an HCl salt of N-[(3R)-3-([1,1′-biphenyl]-4-yloxy)-3-(4-fluorophenyl)propyl]-N-methylglycine.

Row | Compound | IC50
1 | C[C@H](O)c1cccc2c1C(F)(F)C(=O)N2Cc1ccc(-n2nccn2)nc1 [Compound 196, 3,3-difluoro-4-[(1S)-1-hydroxyethyl]-1-{[6-(2H-1,2,3-triazol-2-yl)pyridin-3-yl]methyl)-1,3-dihydro-2H-indol-2-one] | 4200 nM
2 | O=C1N(Cc2ccc(F)c(Br)n2)c2cccc(C(O)C(F)F)c2C1(F)F (single isomer, unassigned) [Compound 274, 1-[(6-bromo-5-fluoropyridin-2-yl)methyl]-4-(2,2-difluoro-1-hydroxyethyl)-3,3-difluoro-1,3-dihydro-2H-indol-2-one] | 4.6 nM
3 | COc1nc(CN2C(=O)C(F)(F)c3c([C@H](C)O)cccc32)ccc1F [Compound 246, 3,3-difluoro-1-[(5-fluoro-6-methoxypyridin-2-yl)methyl]-4-[(1S)-1-hydroxyethyl]-1,3-dihydro-2H-indol-2-one] | 55 nM
4 | COc1ccc(CN2C(=O)C(F)(F)c3c([C@H](C)O)cccc32)nc1C#N [Compound 217, 6-({3,3-difluoro-4-[(1S)-1-hydroxyethyl]-2-oxo-2,3-dihydro-1H-indol-1-yl}methyl)-3-methoxypyridine-2-carbonitrile] | 120 nM
5 | COc1ccc(CN2C(=O)C(F)(F)c3c([C@H](C)O)cccc32)cn1 [Compound 203, 3,3-difluoro-4-[(1S)-1-hydroxyethyl]-1-[(6-methoxypyridin-3-yl)methyl]-1,3-dihydro-2H-indol-2-one] | 31 nM
6 | O=C1N(Cc2ccc(F)cn2)c2cccc(C(O)C(F)F)c2C1(F)F (single isomer, unassigned) [Compound 168, 4-(2,2-difluoro-1-hydroxyethyl)-3,3-difluoro-1-[(5-fluoropyridin-2-yl)methyl]-1,3-dihydro-2H-indol-2-one] | 280 nM
7 | C[C@H](O)c1cccc2c1C(F)(F)C(=O)N2Cc1ccc(C(F)(F)F)c(C#N)n1 [Compound 216, 6-({3,3-difluoro-4-[(1S)-1-hydroxyethyl]-2-oxo-2,3-dihydro-1H-indol-1-yl}methyl)-3-(trifluoromethyl) pyridine-2-carbonitrile] | 9.4 nM

Same assay, conditions: glycine uptake inhibition

Row | Compound | IC50
8 | Cn1c(CN2C(=O)C(F)(F)c3c([C@@H](O)C(F)(F)F)cccc32)nc2ccccc2c1=O [Compound 37, 2-({3,3-difluoro-2-oxo-4-[(1R)-2,2,2-trifluoro-1-hydroxyethyl]-2,3-dihydro-1H-indol-1-yl}methyl)-3-methylquinazolin-4(3H)-one] | 43 nM
9 | C[C@H](O)c1cccc2c1C(F)(F)C(=O)N2Cc1ccnc(C(F)F)c1 [Compound 117, 1-{[2-(difluoromethyl)pyridin-4-yl]methyl}-3,3-difluoro-4-[(1S)-1-hydroxyethyl]-1,3-dihydro-2H-indol-2-one] | 31 nM
10 | O=C1N(Cc2nc3ccccc3[nH]c2=O)c2cccc([C@@H](O)C(F)(F)F)c2C1(F)F [Compound 140, 3-({3,3-difluoro-2-oxo-4-[(1R)-2,2,2-trifluoro-1-hydroxyethyl]-2,3-dihydro-1H-indol-1-yl}methyl) quinoxalin-2(1H)-one] | 33 nM
11 | O=C1N(Cc2ccc(F)nc2)c2cccc(C(O)C(F)F)c2C1(F)F (single isomer, unassigned) [Compound 156, 4-(2,2-difluoro-1-hydroxyethyl)-3,3-difluoro-1-[(6-fluoropyridin-3-yl)methyl]-1,3-dihydro-2H-indol-2-one] | 110 nM
12 | C[C@H](O)c1cccc2c1C(F)(F)C(=O)N2Cc1cccc(F)c1 [Compound 56, 3,3-difluoro-1-(3-fluorobenzyl)-4-[(1S)-1-hydroxyethyl)-1,3-dihydro-2H-indol-2-one] | 9.1 nM
13 | Cc1nc2ccccc2nc1CN1C(=O)C(F)(F)c2c([C@H](C)O)cccc21 [Compound 79, 3,3-difluoro-4-[(1S)-1-hydroxyethyl]-1-[(3-methylquinoxalin-2-yl)methyl]-1,3-dihydro-2H-indol-2-one] | 31 nM
14 | C[C@H](O)c1cccc2c1C(F)(F)C(=O)N2Cc1ccc(C(F)F)nc1 [Compound 130, 1-{[6-(difluoromethyl)pyridin-3-yl]methyl}-3,3-difluoro-4-[(1S)-1-hydroxyethyl]-1,3-dihydro-2H-indol-2-one] | 400 nM
15 | C[C@H](O)c1cccc2c1C(F)(F)C(=O)N2Cc1ccc2nccnc2c1 [Compound 46, 3,3-difluoro-4-[(1S)-1-hydroxyethyl]-1-(quinoxalin-6-ylmethyl)-1,3-dihydro-2H-indol-2-one] | 140 nM
16 | C[C@H](O)c1cccc2c1C(F)(F)C(=O)N2Cc1cnc2ccccc2n1 [Compound 83, 3,3-difluoro-4-[(1S)-1-hydroxyethyl]-1-(quinoxalin-2-ylmethyl)1,3-dihydro-2H-indol-2-one] | 30 nM
17 | CC(O)c1cccc2c1C(F)(F)C(=O)N2Cc1cccc(Cl)n1 (single isomer, unassigned) [Compound 5, 1-[(6-chloropyridin-2-yl)methyl]-3,3-difluoro-4-(1-hydroxyethyl)-1,3-dihydro-2H-indol-2-one] | 300 nM
18 | O=C1N(Cc2cnc3ccccc3c2)c2cccc([C@@H](O)C(F)(F)F)c2C1(F)F [Compound 133, 3,3-difluoro-1-(quinolin-3-ylmethyl)-4-[(1R)-2,2,2-trifluoro-1-hydroxyethyl]-1,3-dihydro-2H-indol-2-one] | 62 nM
19 | CC(O)c1cccc2c1C(F)(F)C(=O)N2Cc1cncc(Cl)c1 (single isomer, unassigned) [Compound 7, 1-[(5-chloropyridin-3-yl)methyl]-3,3-difluoro-4-(1-hydroxyethyl)-1,3-dihydro-2H-indol-2-one] | 14 nM
20 | C[C@H](O)c1cccc2c1C(F)(F)C(=O)N2Cc1cncc(-n2ccnn2)c1 [Compound 87, 3,3-difluoro-4-[(1S)-1-hydroxyethyl]-1-{[5-(1H-1,2,3-triazol-1-yl)pyridin-3-yl]methyl}-1,3-dihydro-2H-indol-2-one] | 1500 nM
21 | C[C@H](O)c1cccc2c1C(F)(F)C(=O)N2Cc1nc2ccccc2o1 [Compound 81, 1-(1,3-benzoxazol-2-ylmethyl)-3,3-difluoro-4-[(1S)-1-hydroxyethyl]-1,3-dihydro-2H-indol-2-one] | 30 nM
22 | CC(O)c1cccc2c1C(F)(F)C(=O)N2Cc1ccnc(Cl)c1 (stereo not drawn) [Compound 27, 1-[(2-chloropyridin-4-yl)methyl]-3,3-difluoro-4-(1-hydroxyethyl)-1,3-dihydro-2H-indol-2-one] | 23 nM
23 | O=C1N(Cc2cncc(-n3nccn3)c2)c2cccc([C@@H](O)C(F)(F)F)c2C1(F)F [Compound 134, 3,3-difluoro-1-{[5-(2H-1,2,3-triazol-2-yl)pyridin-3-yl]methyl}-4-[(1R)-2,2,2-trifluoro-1-hydroxyethyl]-1,3-dihydro-2H-indol-2-one] | 66 nM
24 | N#Cc1cc(CN2C(=O)C(F)(F)c3c(C(O)C(F)(F)F)cccc32)ccn1 (stereo not drawn) [Compound 14, 4-{[3,3-difluoro-2-oxo-4-(2,2,2-trifluoro-1-hydroxyethyl)-2,3-dihydro-1H-indol-1-yl]methyl}pyridine-2-carbonitrile] | 120 nM
25 | COc1cncc(CN2C(=O)C(F)(F)c3c([C@H](C)O)cccc32)c1 [Compound 71, 3,3-difluoro-4-[(1S)-1-hydroxyethyl]-1-[(5-methoxypyridin-3-yl)methyl]-1,3-dihydro-2H-indol-2-one] | 160 nM
26 | C[C@H](O)c1cccc2c1C(F)(F)C(=O)N2Cc1ccsc1 [Compound 80, 3,3-difluoro-4-[(1S)-1-hydroxyethyl]-1-(thiophen-3-ylmethyl)-1,3-dihydro-2H-indol-2-one] | 28 nM

Same assay, conditions: table section whose head prints (μm)

Row | Compound | IC50
27 | N#Cc1nc(CN2C(=O)C(F)(F)c3c(C(O)C(F)F)cccc32)ccc1C(F)(F)F (single isomer, unassigned) [Compound 270, 6-{[4-(2,2-difluoro-1-hydroxyethyl)-3,3-difluoro-2-oxo-2,3-dihydro-1H-indol-1-yl]methyl}-3-(trifluoromethyl) pyridine-2-carbonitrile] | 8.4 nM
